Assays:
[1] = tested on: patients with advanced and treatment-refractory focal segmental sclerosis; conditions: cited from earlier work
[2] = tested on: subjects with diabetic nephropathy; assay: Randomized double-blind, placebo-controlled exploratory trial of pirfenidone: eGFR change (primary endpoint); type: in vivo, human; conditions: for eGFR Change, with imputation: 54 weeks, completers plus subjects who began dialysis, end-of-study eGFR imputed as 10 ml/min per 1.73 m2; for eGFR Change: over 54 weeks, 52 study completers, mean ± SD
Experimental: Pirfenidone is an orally-available anti-fibrotic agent that has shown efficacy in animal models of diabetic nephropathy and human focal segmental glomerulosclerosis. A randomized double-blind, placebo-controlled exploratory trial of pirfenidone was performed in subjects with diabetic nephropathy with elevated albuminura and reduced glomerular filtration rate (eGFR) (20-75 ml/min per 1.73 m^2). The pre-specified primary outcome was eGFR change after one year of therapy. 78 subjects were randomly allocated to placebo (n=27), pirfenidone 1200 mg/d (n=26), or pirfenidone 2400 mg/d (n=25). 52 subjects completed the study. During the course of the study, eGFR increased with pirfenidone 1200 mg/d [+3.3±8.5 ml/min per 1.73 m^2 (mean±SD)], whereas eGFR fell with placebo (−2.2±4.8 ml/min per 1.73 m^2, p<0.03 versus pirfenidone 1200 mg/d) and with pirfenidone 2400 mg/d (−1.9±6.7 ml/min per 1.73 m^2, P=0.25 versus placebo). Of the initial 77 subjects, 5 initiated hemodialysis during the study: 4 in the placebo group, 0 in the pirfenidone 1200 mg group and 1 in the pirfenidone 2400 mg group (P=0.25). Baseline serum albumin levels were statistically associated with eGFR improvement in the entire cohort (p=0.001) and in the pirfenidone 2400 group (+0.9 [95% CI 0.7 to 1.1], p=0.03).
The study protocol was approved by the institutional review boards of the participating centers and all patients provided written consent. Trial sites were Thomas Jefferson University, Philadelphia, Pa.; the Mayo Clinic, Rochester, Minn.; and the NIH Clinical Center, Bethesda, Md. At the pre-study evaluation, the potential study candidates provided a medical history and underwent a complete physical examination, including clinical laboratory determinations and the measurement of vital signs. Entry criteria included a history of type 1 or type 2 diabetes, eGFR 20-75 ml/min/1.73 m2, microalbuminuria or overt proteinuria, blood pressure <140/90 mm Hg on an a ACEi, ARB or the combination, if tolerated. Exclusion criteria included other causes of kidney disease, history of photosensitivity rash, and liver disease. A stratified block randomization scheme was used to maximize the balance of patients with type 1 and type 2 diabetes assigned to each treatment group, using randomization blocks of size 4.
(§1) Eligible subjects were randomly assigned to receive pirfenidone 1200 mg daily, pirfenidone 2400 mg daily, or placebo for 54 weeks. Subjects received two 400 mg capsules of pirfenidone three times, one capsule of pirfenidone and one capsule of placebo three times daily), or two capsules of placebo three times daily. […] If symptoms persisted, the dose was kept at the lowest tolerable dose (but not less than 50% of original dose) if the subject desired to continue in the protocol.
(§2) The primary endpoint was eGFR change from baseline to end of study. Baseline eGFR was determined from two serum creatinine measurements within 3 weeks prior to starting study drug. End of study eGFR was determined from two serum creatinine measurements at week 52 and week 54, prior to stopping study medication. Serum creatinine was measured by the Jaffe method separately at each clinic site laboratory. eGFR was determined by the 4-variable Modification of Diet in Renal Disease Study equation 37. Secondary endpoints included the change in urine ACR and the change in urine TGF-[…]/urine creatinine.
The pre-specified primary endpoint analysis was the eGFR change, compared between each pirfenidone treatment group with placebo group using the Student t-test. […]

[3] = tested on: subjects with diabetic nephropathy; assay: Pirfenidone trial: adverse events and study non-completion; type: in vivo, human; conditions: for non-completion: Aortic dilation / non-completion: Cancer / non-completion: Dialysis / non-completion: Fatigue / non-completion: Gastrointestinal symptoms / non-completion: Heart failure / non-completion: Rash / non-completion: Urinary tract infection: number of subjects (%)
Experimental: as §1
An analysis based on logistic regression models was conducted to determine whether this violates the assumption of missing completely at random (MCAR) 40. This included using baseline characteristics to predict dropout and using eGFR values at a particular visit to predict dropout at the next visit. The latter part of the logistic regression was fitted using generalized estimating equations (GEE) 41. All data analyses were conducted using R and STATA version 11.0 (College Station, Tex.)

[4] = tested on: subjects with diabetic nephropathy; assay: Urine metabolomics in subjects treated with pirfenidone; type: in vivo, human; conditions: second cohort of patients enrolled in a separate trial
Text: Twenty-four hour urine was collected from both control and D-CKD subjects. A composite quantitative urine organic acid estimation was done using the Agilent 5973 […] and Mass spectrometry. Seventy-six different organic acids were looked at per sample and the results were standardized per mmol of creatinine.
Based on this study, the basis for why pirfenidone benefited some patients and not others was unclear. Despite available clinical data and protein biomarker studies there was little understanding on how to dose and prescribe this drug in a future study. Urine metabolomics was performed in subjects enrolled in this study at baseline and at 6 months after enrollment. A panel of metabolites based on a specific ratio added predictive value to the outcome on the drug. […] Similar approaches can be employed with other clinical trials to identify which patients will respond to drug, which patients will not, and identify potential new mechanisms. Additionally, metabolite profiles could predict adverse events in patients that are ongoing or will develop in the future.

[5] = tested on: subjects with diabetic nephropathy; assay: Pirfenidone trial: changes in plasma biomarkers of inflammation and fibrosis; type: in vivo, human; conditions: for Change in IFN gamma / Change in Plasma TGF Beta / Change in TNF α / Change in YKL40 / Change in BNP / Change in FGF23 / Change in IL1 / Change in S TNF R1: over 52 weeks; for Change in IFN gamma / Change in Plasma TGF Beta / Change in TNF α / Change in YKL40: mean ± SD; for Change in BNP / Change in FGF23 / Change in IL1 / Change in S TNF R1: median and IQR
Experimental: (§3) Biomarkers were analyzed in plasma and urine from samples collected at both baseline visits and both end-of-study visits, with the two results averaged. Plasma biomarkers were measured by MesoScale Discovery (MSD) platform at the UCSD Clinical Translational Research Institute (CTRI) facility. The MSD platform uses electrochemiluminescence tags on specific antibodies that emit light when electrochemically stimulated. The specific blood biomarkers measured were interferon-y (IFNy), interleukin 1 (IL-1), tumor necrosis factor (TNF), soluble TNF receptor 1 (S TNF R1), YKL40 (also called chitinase like protein or human cartilage glycoprotein-39), brain natriuretic peptide (BNP), and TGF-beta1. Fibroblast growth factor 23 (FGF23) was measured by a C-terminal ELISA assay (Immutopics, San Clemente, Calif.). Urine biomarkers included urine TGF-beta1 (measured by Quantikine, R&D Biosystems, as previously described 29). Urine albumin was measured by nephelometry and urine creatinine was measured by the Jaffe method.
In exploratory analysis, linear regression was performed to evaluate associations between baseline eGFR as the dependent variable and each biomarker at baseline as the independent variable. Skewed variables were natural log transformed, and each biomarker was evaluated as “per SD greater” to facilitate comparisons of strengths of association. Biomarker change scores were calculated as (end-of-study value—baseline level). Analysis of variance (ANOVA) was used to determine if the change in biomarker levels differed by randomized treatment assignment. It was also whether baseline biomarker levels were associated with eGFR change using multivariable linear regression. These models were adjusted for the other biomarkers and for clinical factors that are well established markers of progressive diabetic nephropathy, including age, sex, race, SBP, DBP, baseline ACR, and baseline eGFR.

[6] = tested on: subjects with diabetic nephropathy; assay: Pirfenidone trial, secondary outcomes: urine albumin/creatinine ratio and urine TGF-beta; type: in vivo, human
Experimental: as §2, §3
The pre-specified primary endpoint analysis was the eGFR change, compared between each pirfenidone treatment group with placebo group using the Student t-test. Secondary endpoints (ACR change and urine TGF-beta1 change[…]s were similarly evaluated. When one of the two visits was missing, a single observation was used. Due to missing data the assumption that the data points arose from an identical distribution (equal variance) was put in question. Therefore, in addition to the two-sample t-tests, we also performed permutation tests with 10,000 permutations of the treatment assignments, as well as an analysis of covariance (ANCOVA) 38 with iterated re-weighted least-squares (IWLS) 39 as confirmatory analyses. Data are presented as mean±SD for normally distributed variables, and medians and interquartile ranges for skewed variables.

[7] = tested on: db/db mice; conditions: cited from earlier work

For `Cc1ccc(=O)n(-c2ccccc2)c1` [pirfenidone], the “share of subjects who tolerated the dose” value ([1]; 2400 mg/d, FSGS open label study) is listed as “⅔”, the “reduction in the rate of estimated glomerular filtration rate (eGFR) decline” value ([1]; compared to the rate of decline before pirfenidone) is listed as 25% and the “eGFR Change, with imputation” value ([2]; 1200 mg) is listed as 3.3 ± 8.5 ml/min/1.73 m^2. The “eGFR Change” value ([2]; 1200 mg) was 3.3 ± 8.5 ml/min/1.73 m^2, the “eGFR Change, with imputation” value ([2]; 2400 mg) was −2.1 ± 6.4 ml/min/1.73 m^2 and the “eGFR Change” value ([2]; 2400 mg) was −1.9 ± 6.7 ml/min/1.73 m^2. The “subjects who initiated hemodialysis during the study” value ([2]; pirfenidone 1200 mg group) was 0, the “mean inter-group difference in eGFR change versus placebo” value ([2]; pirfenidone 1200 mg, baseline to end-of-study) was “+5.5 ml/min per 1.73 m^2” and the “difference in eGFR change versus placebo, baseline to month 6” value ([2]; pirfenidone 1200 mg, post-hoc two sample t-test) was 5.3 ml/min/1.73 m^2. The “eGFR change during the course of the study” value ([2]; pirfenidone 2400 mg/d, one year (54 weeks), mean±SD) was −1.9±6.7 ml/min per 1.73 m^2, the “mean difference in eGFR change versus placebo” value ([2]; pirfenidone 2400 mg, baseline to end-of-study) was 0.3 ml/min per 1.73 m^2 and the “non-completion: Aortic dilation” value ([3]; 1200 mg (n = 26)) was 1 (4%). The “non-completion: Cancer” value ([3]; 1200 mg (n = 26)) was 0 (0%), the “non-completion: Dialysis” value ([3]; 1200 mg (n = 26)) was 0 (0%) and the “non-completion: Fatigue” value ([3]; 1200 mg (n = 26)) was 0 (0%). The “non-completion: Gastrointestinal symptoms” value ([3]; 1200 mg (n = 26)) was 3 (13%), the “non-completion: Heart failure” value ([3]; 1200 mg (n = 26)) was 1 (4%) and the “non-completion: Rash” value ([3]; 1200 mg (n = 26)) was 1 (4%). The “non-completion: Urinary tract infection” value ([3]; 1200 mg (n = 26)) was 0 (0%), the “non-completion: Aortic dilation” value ([3]; 2400 mg (n = 25)) was 0 (0%) and the “non-completion: Cancer” value ([3]; 2400 mg (n = 25)) was “One subject”. The “non-completion: Dialysis” value ([3]; 2400 mg (n = 25)) was 1 (4%), the “non-completion: Fatigue” value ([3]; 2400 mg (n = 25)) was 3 (12%) and the “non-completion: Gastrointestinal symptoms” value ([3]; 2400 mg (n = 25)) was 6 (25%). The “non-completion: Heart failure” value ([3]; 2400 mg (n = 25)) was 0 (0%), the “non-completion: Rash” value ([3]; 2400 mg (n = 25)) was 1 (4%) and the “non-completion: Urinary tract infection” value ([3]; 2400 mg (n = 25)) was 1 (4%). For the same molecule, the “non-completion: Cancer” value ([3]; 2400 mg (n = 25), listed as Prifenidone) was 1 (4%), the “incidence of gastrointestinal side effects and fatigue” value ([3]; pirfenidone groups compared to placebo) was “appeared to be dose related” and the “Non-Completers, n (%)” value ([3]; randomized to 1200) was 9 (35%). For the same molecule, the “Non-Completers, n (%)” value ([3]; randomized to 2400) was 11 (44%), the “urine citrate with interventional treatment” value [4] was “showed an increase” and the “Change in IFN gamma” value ([5]; 1200, n = 14) was 0.1 ± 1.9 pg/mL. The “Change in Plasma TGF Beta” value ([5]; 1200, n = 14) was -2 ± 26 pg/mL, the “Change in TNF α” value ([5]; 1200, n = 14) was -0.8 ± 2.2 pg/mL and the “Change in YKL40” value ([5]; 1200, n = 14) was 6 ± 62 ng/mL. The “Change in BNP” value ([5]; 1200, n = 14) was −22 (−114, 24) pg/ml, the “Change in FGF23” value ([5]; 1200, n = 14) was −3 (−23, 33) RU/ml and the “Change in IL1” value ([5]; 1200, n = 14) was 0.0 (−0.3, 0.4) pg/ml. The “Change in S TNF R1” value ([5]; 1200, n = 14) was −140 (−497, 148) pg/ml, the “Change in IFN gamma” value ([5]; 2400, n = 14) was 0.2 ± 2.5 pg/mL and the “Change in Plasma TGF Beta” value ([5]; 2400, n = 14) was 7 ± 17 pg/mL. For the same molecule, the “Change in TNF α” value ([5]; 2400, n = 14) was -0.7 ± 2.1 pg/mL, the “Change in YKL40” value ([5]; 2400, n = 14) was 30 ± 43 ng/mL and the “Change in BNP” value ([5]; 2400, n = 14) was 45 (−67, 312) pg/ml. For the same molecule, the “Change in FGF23” value ([5]; 2400, n = 14) was 13 (−6, 63) RU/ml, the “Change in IL1” value ([5]; 2400, n = 14) was 0.0 (−0.2, 0.2) pg/ml and the “Change in S TNF R1” value ([5]; 2400, n = 14) was 197 (−113, 420) pg/ml. The “change of inflammatory plasma biomarkers with treatment” value ([5]; in vivo) was “none changed significantly”, the “change in urine albumin/creatinine ratio (ACR) from baseline to end of study” value ([6]; among study groups) was “no significant differences” and the albuminuria with treatment ([6]; in vivo) was “did not decrease”. The “urine TGF-beta levels, increase over 12 months” value ([6]; pirfenidone 1200 mg group) was 0.3 pg/mg, the “urine TGF-beta levels, decline over 12 months” value ([6]; pirfenidone 2400 mg group) was 0.1 pg/mg and the albuminuria ([7]; diabetic db/db mouse) was “without lowering albuminuria”. The glomerulosclerosis ([7]; oral, after the onset of established diabetic kidney disease) was “effective in reducing glomerulosclerosis”.
